Patent publication US20100075856A1, “METHOD FOR INCREASING THE DRY BIOMASS OF PLANTS” (BASF SE, priority 2006, published 2010)

How the values were obtained:
Type in all cases: in vivo
[1] = test system: Corn of the cultivar DKB 390; assay: Biomass of corn grains, field trial, free disease conditions (example 1.1); conditions: corn DKB 390, 150 g of active compound per ha, spray, epoxiconazole pre-treatment, grains 14 to 20% residual moisture
Procedure: (§1) Corn of the cultivar DKB 390 was cultivated under customary conditions (150 kg/ha nitrogen) at Campinas (Brazil) in 2005/2006. One part of the trial was treated with pyraclostrobin (in the form of the commercially available product F500 from BASF; diluted with water to a concentration 0.5 g/l) at the growing stage 34/35 and the other part at GS 55/57 by spraying about 300 l/ha (150 g of active compound per ha). Control plants were treated at GS 35/35 and 55/57, respectively, with a formulation according to that of F500 but without the active compound pyraclostrobin (“blank formulation”). One week prior to the treatment either with the active formulation or with the blank formulation, the plants were treated with epoxiconazole in order to ensure absence of fungal stress. 55 days after the application at GS 55/57, the plants were harvested and the corn grains having a residual moisture content of 14 to 20% by weight, based on the total weight of the grains, were weighed.

[2] = test system: Corn of the cultivar DKB 390; assay: Biomass of corn grains, field trial, disease conditions (example 1.2); conditions: corn DKB 390, 150 g of active compound per ha, without epoxiconazole pre-treatment, grains 14 to 22% residual moisture
Procedure: as §1
The experiments were carried out according to example 1.1, however without the epoxiconazole pre-treatment. Moreover, the concentration of pyraclostrobin in the spray liquor was 1 g/l and 150 l/ha were sprayed (150 g of active compound per ha). The residual moisture content of the grains was 14 to 22% by weight, based on the total weight of the grains.

[3] = test system: Corn of the cultivar DKB 390; assay: Biomass of corn grains, field trial, free disease conditions, another field (example 1.3); conditions: corn DKB 390, another field
Procedure: as §1
The experiments were carried out according to example 1.1, however using another field.

[4] = test system: corn of the cultivar DKB 455; assay: Biomass of corn grains, field trial, free disease conditions (example 1.4)
Procedure: as §1
The experiments were carried out according to example 1.1, however using corn of the cultivar DKB 455.

[5] = test system: Soybean of the variety Conquista; assay: Biomass of soybean grains, field trial, free disease conditions (example 2.1); conditions: spray, epoxiconazole pre-treatment, grains 13 to 18% residual moisture
Procedure: (§2) Soybean of the variety Conquista was cultivated under customary conditions at Campinas (Brazil) in 2005/2006. One part of the trial was treated with pyraclostrobin (in the form of the commercially available product F500 from BASF; diluted with water to a concentration of 0.42 g/l) at the growing stage 61/62 and the other part at GS 65/67 by spraying about 350 l/ha (150 g of active compound per ha). Control plants were treated at GS 61/62 and 65/67, respectively, with a formulation according to that of F500 but without the active compound pyraclostrobin (“blank formulation”). One week prior to the treatment either with the active formulation or with the blank formulation, the plants were treated with epoxiconazole in order to ensure absence of fungal stress. 56 days after the application at GS 65/67, the plants were harvested and the soybean grains having a residual moisture content of 13 to 18% by weight, based on the total weight of the grains, were weighed.

[6] = test system: Soybean of the variety Conquista; assay: Biomass of soybean grains, field trial, disease conditions (example 2.2); conditions: without epoxiconazole pre-treatment, grains 13 to 22% residual moisture
Procedure: as §2
The experiments were carried out according to example 2.1, however without the epoxiconazole pre-treatment. The residual moisture content was 13 to 22% by weight, based on the total weight of the grains.

[7] = treated at GS 61/62, 150 g of active compound per ha
[8] = treated at GS 65/67, 150 g of active compound per ha

pyraclostrobin gave a Yield ([1]; treated at GS 34/35) of 10.4 ton/ha, a Yield ([1]; treated at GS 55/57) of 10.6 ton/ha and a Yield ([2]; treated at GS 34/35) of 8.7 ton/ha. It also gave a Yield ([2]; treated at GS 55/57) of 8.8 ton/ha, a Yield ([3]; treated at GS 34/35, 150 g of active compound per ha) of 8.0 ton/ha and a Yield ([3]; treated at GS 55/57, 150 g of active compound per ha) of 8.3 ton/ha. It also gave a Yield ([4]; corn DKB 455, treated at GS 34/35, 150 g of active compound per ha) of 8.6 ton/ha, a Yield ([4]; corn DKB 455, treated at GS 55/57, 150 g of active compound per ha) of 9.2 ton/ha and a Yield [5, 7] of 2254 kg/ha. The Yield [5, 8] was 2209 kg/ha, the Yield [6, 7] was 2163 kg/ha and the Yield [6, 8] was 2120 kg/ha.
